US4322540A, “Substituted 4,5,6,7-tetrahydro-1H (or 2H)-indazoles” (Eli Lilly and Company, priority 1981, dated 1982)
Where a name gives a salt, the structure may show the parent alone.

Experiments:
[1] = test system: nigro-neostriatal-lesioned rats; assay: Turning behavior in 6-hydroxy-dopamine-lesioned rats (dopamine agonist activity); format: in vivo, rat; conditions: intraperitoneal; for Percent of rats exhibiting turning behavior: 15-minute period after latency; for Number of turns (average): counted over 15-minute period
Procedure: In this test, nigro-neostriatal-lesioned rats, prepared by the procedure of Ungerstedt and Arbuthnott, Brain Res, 24, 485 (1970) are employed. A compound having dopamine agonist activity, upon injection, causes the rats to turn in circles contralateral to the side of the lesion. After a latency period, which varies from compound to compound, the number of turns is counted over a 15-minute period. The compounds are dissolved in water and the resulting aqueous solution injected into the rat by the intraperitioneal route at a series of dose levels.

prolactin = assay: Inhibition of prolactin secretion in reserpine-treated rats; format: in vivo, adult male rats of the Sprague-Dawley strain; conditions: intraperitoneal, serum one hour after treatment, reserpine-treated male rats
Procedure: The compounds of this invention are also useful as prolactin inhibitors and as such can be employed in the treatment of inappropriate lactation, such as postpartum lactation and galactorrhea.
Adult male rats of the Sprague-Dawley strain weighing about 200 g. were housed in an air-conditioned room with controlled lighting (lights on 6 a.m.-8 p.m.) and fed lab chow and water ad libitum. Each rat received an intraperitioneal injection of 2.0 mg. of reserpine in aqueous suspension 18 hours before administration of the indazole. The purpose of the reserpine was to keep prolactin levels uniformly elevated. The compounds under test were dissolved in water and were injected intraperitioneally at doses ranging from 5 mg/kg down to […]. Each compound was administered at each dose level to a group of 10 rats, and a control group of 10 intact males received an equivalent amount of solvent. One hour after treatment all rats were killed by decapitation, and 150 μl aliquots of serum were assayed for prolactin.
The difference between the prolactin level of the treated rats and prolactin level of the control rats divided by the prolactin level of the control rats gives the percent inhibition of prolactin secretion attributable to the compounds of this invention. In the table, column 1 gives the name of the compound; and columns 2-4 the percent prolactin inhibition at the given dose level.

mouse = assay: Acute toxicity (LD50) by the intraperitoneal route in the mouse; format: in vivo
Procedure: In using the compounds of this invention to inhibit prolactin secretion or to treat Parkinson's syndrome or for other pharmacologic action, a compound according to Formulas I and II above, or a salt thereof with a pharmaceutically-acceptable acid, is administered to a subject suffering from Parkinsonism, or in need of having their prolactin level reduced, in an amount effective to alleviate some of the symptoms of Parkinsonism or to reduce an elevated prolactin level. Oral administration is preferred. If parenteral administration is used, the injection is preferably by the subcutaneous route using an appropriate pharmaceutical formulation. […] In particular, with intravenous or intramuscular administration, a water soluble pharmaceutically-acceptable salt is employed. For oral administration, a compound according to Formulas I and II either as the free base or in the form of a salt thereof can also be mixed with standard pharmaceutical excipients and loaded into empty telescoping gelatin capsules or pressed into tablets. The oral dosage should be in the range 0.01-10 mg/kg of mammalian body weight and the parenteral dose in the range 0.0025 to 2.5 mg/kg. The LD50 of dl-5-di(n-propyl)amino-4,5,6,7-tetrahydro-1H(and 2H)-indazole dihydrochloride is between 100 and 300 mg/kg by the intraperitoneal route in the mouse.

Compound | Percent of rats exhibiting turning behavior ([1]; 1 mg/kg) | Number of turns (average) ([1]; 1 mg/kg) | Percent of rats exhibiting turning behavior ([1]; 100 mcg/kg) | Percent of rats exhibiting turning behavior ([1]; 250 mcg/kg) | Number of turns (average) ([1]; 250 mcg/kg) | Percent Inhibition of Prolactin (prolactin; 50 mcg/kg) | Percent Inhibition of Prolactin (prolactin; 5 mg/kg) | Percent Inhibition of Prolactin (prolactin; 500 mcg/kg) | Number of turns (average) ([1]; 100 mcg/kg) | Lethality (mouse; 10 mg/kg) | Lethality (mouse; 30 mg/kg) | Side effects (mouse; 30 mg/kg)
NC1CCc2[nH]ncc2C1 (racemic) [dl-5-Amino-4,5,6,7-tetrahydro-1H-indazole dihydrochloride and dl-5-amino-4,5,6,7-tetrahydro-2H-indazole dihydrochloride] | 33% | 7 turns |  |  |  |  |  |  |  |  |  | 
CCCN(CCC)C1CCc2cn[nH]c2C1 (racemic) [dl-6-di-(n-propyl)amino-4,5,6,7-tetrahydro-1H(and 2H)-indazole dihydrochloride] | 100% | 98 turns | 0% | 50% | 30 turns | 31% |  |  |  |  |  | 
CN(C)C1CCc2[nH]ncc2C1 (racemic) [dl-5-Dimethylamino-4,5,6,7-tetrahydro-1H-indazole dihydrochloride and dl-5-dimethylamino-4,5,6,7-tetrahydro-2H-indazole dihydrochloride] | 33% | 5 turns |  |  |  | 31% | 73% | 30% |  |  |  | 
CCCN(CCC)C1CCc2n[nH]cc2C1 (racemic) [dl-5-di(n-propyl)amino-4,5,6,7-tetrahydro-1H(and 2H)-indazole dihydrochloride] | 67% | 48 turns | 33% |  |  | 1% | 94% | 66% | 6 turns | not fatal | not fatal | produces some undesirable side effects
